Columns and labels:
Assay in all cases: Post-emergence test, weed control effect
Format in all cases: in vivo
Details in all cases: after 3 weeks
[1] = test system: Amaranthus retroflexus
Outline: (§1)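 Activity is expressed as a level from 0 (no effect) to 10 (plant dead), each step matching a further 10% fresh-weight inhibition, assessed 3 weeks post-treatment. Treatment: spray at 2-3 leaf stage of pot-grown plants, compound in acetone, Tween-80 and water with 80% vegetable oil methyl ester synergist at 1500 g/ha.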

[2] = test system: Rorippa indica
Outline: as §1

[3] = test system: Veronica polita
Outline: as §1

[4] = test system: Chenopodiaceae
Outline: as §1

Oc1cc(C(F)(F)F)nnc1-c1ccc(I)cc1 [Compound 33]
10: weed control effect (activity level), Amaranthus retroflexus ([1]; dose 1000 g/ha) | weed control effect (activity level), Rorippa indica ([2]; dose 1000 g/ha) | weed control effect (activity level), Veronica polita ([3]; dose 1000 g/ha) | weed control effect (activity level), Chenopodiaceae ([4]; dose 1000 g/ha)

Oc1cc(C(F)(F)F)nnc1-c1cccc(C(F)(F)F)c1F [Compound 761]
10: weed control effect (activity level), Amaranthus retroflexus ([1]; Dose 3000 g/ha) | weed control effect (activity level), Rorippa indica ([2]; Dose 3000 g/ha) | weed control effect (activity level), Veronica polita ([3]; Dose 3000 g/ha) | weed control effect (activity level), Chenopodiaceae ([4]; Dose 3000 g/ha)

Oc1cc(C(F)(F)F)nnc1-c1cnccc1Br [Compound 968]
10: weed control effect (activity level), Amaranthus retroflexus ([1]; Dose 3000 g/ha) | weed control effect (activity level), Rorippa indica ([2]; Dose 3000 g/ha) | weed control effect (activity level), Veronica polita ([3]; Dose 3000 g/ha) | weed control effect (activity level), Chenopodiaceae ([4]; Dose 3000 g/ha)

Oc1cc(C(F)(F)F)nnc1-c1cc(F)cnc1F [Compound 986]
10: weed control effect (activity level), Amaranthus retroflexus ([1]; Dose 3000 g/ha) | weed control effect (activity level), Rorippa indica ([2]; Dose 3000 g/ha) | weed control effect (activity level), Veronica polita ([3]; Dose 3000 g/ha) | weed control effect (activity level), Chenopodiaceae ([4]; Dose 3000 g/ha)

Cn1nc(OCc2ccccc2)cc1-c1nnc(C(F)(F)F)cc1O [Compound 784]
10: weed control effect (activity level), Amaranthus retroflexus ([1]; Dose 3000 g/ha) | weed control effect (activity level), Rorippa indica ([2]; Dose 3000 g/ha) | weed control effect (activity level), Veronica polita ([3]; Dose 3000 g/ha) | weed control effect (activity level), Chenopodiaceae ([4]; Dose 3000 g/ha)

Cc1cc(F)ncc1-c1nnc(C(F)(F)F)cc1O [Compound 221]
10: weed control effect (activity level), Amaranthus retroflexus ([1]; dose 2000 g/ha) | weed control effect (activity level), Rorippa indica ([2]; dose 2000 g/ha) | weed control effect (activity level), Veronica polita ([3]; dose 2000 g/ha) | weed control effect (activity level), Chenopodiaceae ([4]; dose 2000 g/ha)

O=S(=O)(Cc1ccccc1)Oc1cc(C(F)(F)F)nnc1-c1ccc(F)cc1 [Compound 1-143]
10: weed control effect, Amaranthus retroflexus (activity level) ([1]; Dose 3000 g/ha) | weed control effect, Rorippa indica (activity level) ([2]; Dose 3000 g/ha) | weed control effect, Veronica polita (activity level) ([3]; Dose 3000 g/ha) | weed control effect, Chenopodiaceae (activity level) ([4]; Dose 3000 g/ha)

CCn1nccc1-c1nnc(C(F)(F)F)cc1O [Compound 826]
10: weed control effect (activity level), Amaranthus retroflexus ([1]; Dose 3000 g/ha) | weed control effect (activity level), Rorippa indica ([2]; Dose 3000 g/ha) | weed control effect (activity level), Veronica polita ([3]; Dose 3000 g/ha) | weed control effect (activity level), Chenopodiaceae ([4]; Dose 3000 g/ha)

CCc1cccc(-c2nnc(C(F)(F)F)cc2OS(=O)(=O)c2nc3ccccc3[nH]2)c1 [Compound 1-153]
10: weed control effect, Amaranthus retroflexus (activity level) ([1]; Dose 3000 g/ha) | weed control effect, Rorippa indica (activity level) ([2]; Dose 3000 g/ha) | weed control effect, Veronica polita (activity level) ([3]; Dose 3000 g/ha) | weed control effect, Chenopodiaceae (activity level) ([4]; Dose 3000 g/ha)

Oc1cc(C(F)(F)F)nnc1-c1ccc(C(F)(F)F)cc1Cl [Compound 769]
10: weed control effect (activity level), Amaranthus retroflexus ([1]; Dose 3000 g/ha) | weed control effect (activity level), Rorippa indica ([2]; Dose 3000 g/ha) | weed control effect (activity level), Veronica polita ([3]; Dose 3000 g/ha) | weed control effect (activity level), Chenopodiaceae ([4]; Dose 3000 g/ha)

O=C(Oc1cc(C(F)(F)F)nnc1-c1ccc(F)c(F)c1)c1ccco1 [Compound 1-104]
10: weed control effect, Amaranthus retroflexus (activity level) ([1]; Dose 3000 g/ha) | weed control effect, Rorippa indica (activity level) ([2]; Dose 3000 g/ha) | weed control effect, Veronica polita (activity level) ([3]; Dose 3000 g/ha) | weed control effect, Chenopodiaceae (activity level) ([4]; Dose 3000 g/ha)

O=C(Oc1cc(C(F)(F)F)nnc1-c1ccccc1)SC1CCCCC1 [Compound 1-58]
10: weed control effect, Amaranthus retroflexus (activity level) ([1]; Dose 3000 g/ha) | weed control effect, Rorippa indica (activity level) ([2]; Dose 3000 g/ha) | weed control effect, Veronica polita (activity level) ([3]; Dose 3000 g/ha) | weed control effect, Chenopodiaceae (activity level) ([4]; Dose 3000 g/ha)

Oc1cc(C(F)(F)F)nnc1-c1cccnc1Br [Compound 965]
10: weed control effect (activity level), Amaranthus retroflexus ([1]; Dose 3000 g/ha) | weed control effect (activity level), Rorippa indica ([2]; Dose 3000 g/ha) | weed control effect (activity level), Veronica polita ([3]; Dose 3000 g/ha) | weed control effect (activity level), Chenopodiaceae ([4]; Dose 3000 g/ha)

CC(C)Sc1ccc(-c2nnc(C(F)(F)F)cc2O)cc1 [Compound 96]
10: weed control effect (activity level), Amaranthus retroflexus ([1]; dose 1000 g/ha) | weed control effect (activity level), Rorippa indica ([2]; dose 1000 g/ha) | weed control effect (activity level), Veronica polita ([3]; dose 1000 g/ha) | weed control effect (activity level), Chenopodiaceae ([4]; dose 1000 g/ha)

Cn1cc(-c2nnc(C(F)(F)F)cc2O)cn1 [Compound 839]
10: weed control effect (activity level), Amaranthus retroflexus ([1]; Dose 3000 g/ha) | weed control effect (activity level), Rorippa indica ([2]; Dose 3000 g/ha) | weed control effect (activity level), Veronica polita ([3]; Dose 3000 g/ha) | weed control effect (activity level), Chenopodiaceae ([4]; Dose 3000 g/ha)

COc1ccc(-c2nnc(C(F)(F)F)cc2O)cn1 [Compound 226]
10: weed control effect (activity level), Amaranthus retroflexus ([1]; dose 2000 g/ha) | weed control effect (activity level), Rorippa indica ([2]; dose 2000 g/ha) | weed control effect (activity level), Veronica polita ([3]; dose 2000 g/ha) | weed control effect (activity level), Chenopodiaceae ([4]; dose 2000 g/ha)

N#Cc1ccc(-c2nnc(C(F)(F)F)cc2O)cn1 [Compound 212]
10: weed control effect (activity level), Amaranthus retroflexus ([1]; dose 2000 g/ha) | weed control effect (activity level), Rorippa indica ([2]; dose 2000 g/ha) | weed control effect (activity level), Veronica polita ([3]; dose 2000 g/ha) | weed control effect (activity level), Chenopodiaceae ([4]; dose 2000 g/ha)

Cn1nccc1-c1nnc(C(F)(F)F)cc1O [Compound 774]
10: weed control effect (activity level), Amaranthus retroflexus ([1]; Dose 3000 g/ha) | weed control effect (activity level), Rorippa indica ([2]; Dose 3000 g/ha) | weed control effect (activity level), Veronica polita ([3]; Dose 3000 g/ha) | weed control effect (activity level), Chenopodiaceae ([4]; Dose 3000 g/ha)
